Common to all, as to format: in vivo, mouse
Data set [1] in a line: Liver triglycerides and glycogen stores in db/db mice (Table 8). As to the method: (§1) Seven-week old male C57B1/6J-Lepr db/db mice (Jackson Laboratory, Bar Harbor, Me.) were fed a diet with a fat content of about 14% (Formulab Diet 5008) and were subcutaneously injected with ISIS 116847 (SEQ ID NO: 143), ISIS 141923 (SEQ ID NO: 144), or ISIS 148985 (SEQ ID NO: 118), an antisense inhibitor of glucose-6-phosphatase translocase, […] […] Saline-injected animals served as controls. 48 hours after the eighth and final dose was administered, mice were sacrificed and target levels were evaluated in liver. RNA isolation and target mRNA expression level quantitation were performed as described by other examples herein.
Patients with the human glycogen storage disease type 1b have mutations in the glucose-6-phosphatase translocase gene. Because one manifestation of these mutations is a defect in hepatic glycogen deposition, the db/db mice were further evaluated at the end of the treatment period for liver glycogen stores. Tissue glycogen levels were measured using the Glucose Trinder Reagent (Sigma-Aldrich, St. Louis, Mo.). Tissue triglyceride levels were measured using a Triglyceride GPO Assay from Roche Diagnostics (Indianapolis, Ind.). Liver triglyceride levels were used to assess hepatic steatosis, or accumulation of lipids in the liver. Hepatic steatosis was also assessed by routine histological analysis of frozen liver tissue sections stained with oil red 0 stain, which is commonly used to visualize lipid deposits, and counterstained with hematoxylin and eosin, to visualize nuclei and cytoplasm, respectively. Data are presented in Table 8 as the averages from 5 animals per treatment group.

Another data set deals with db/db mice. Nature of the data set: Fed plasma glucose in db/db mice, dose-response study (Example 11). As to the method:
as §1
For seven animals per treatment group, plasma glucose was measured with routine clinical analyzer instruments (e.g. Olympus Clinical Analyzer). Data are expressed as averages per treatment group.

The nature of data set [2]: Plasma triglycerides, cholesterol, free fatty acids, transaminases and lactate in db/db mice (Table 7). Here is the method:
Seven-week old male C57B1/6J-Lepr db/db mice (Jackson Laboratory, Bar Harbor, Me.) were fed a diet with a fat content of about 14% (Formulab Diet 5008) and were subcutaneously injected with ISIS 116847 (SEQ ID NO: 143), ISIS 141923 (SEQ ID NO: 144), or ISIS 148985 (SEQ ID NO: 118), an antisense inhibitor of glucose-6-phosphatase translocase, […] weeks. […] Saline-injected animals served as controls. 48 hours after the eighth and final dose was administered, mice were sacrificed and target levels were evaluated in liver. RNA isolation and target mRNA expression level quantitation were performed as described by other examples herein.
To further assess the physiological effects resulting from inhibition of target mRNA, the db/db mice were evaluated at the end of the treatment period for plasma triglycerides, plasma cholesterol, free fatty acids (FFA), lactate and plasma transaminase levels. The transaminases ALT and AST are indicators of liver function. Plasma triglycerides, cholesterol, free fatty acids, and transaminases were measured by routine clinical analyzer instruments (e.g. Olympus Clinical Analyzer, Melville, N.Y.). Results are presented in table 7 as the averages from seven animals per treatment group.

A further data set deals with ob/ob mice. The data set is described as follows: Glycerol tolerance test in ob/ob mice. Particulars: 25 mg/kg twice weekly, after 6th dose, glycerol 1 g/kg oral. Here is the method: The mice described in Example 7 were evaluated for performance on glycerol tolerance tests after the 6th dose of saline or antisense oligonucleotides. This is a functional measure of glucose-6-phosphatase translocase inhibition; i.e., whether the conversion of […] to glucose is impaired by antisense inhibitors of glucose-6-phosphatase translocase.
Glycerol tolerance tests were performed after treatment with saline, ISIS 148985 (SEQ ID NO: 118), or ISIS 149008 (SEQ ID NO: 141). Glycerol was administered by oral gavage via an 18 g gavage needle at a dose of 1 g/kg. Plasma glucose levels were measured for 30, 60, 90 and 120 minutes post-challenge using an Ascencia Glucometer Elite XL (Bayer, Tarrytown, N.Y.) and plotted over time. Area under the curve (AUC) for each treatment graph was calculated.

The mark [3] stands for this setting: 25 mg/kg twice weekly 4 weeks (25 mg/mL [sic]), saline 25.
Where [4] appears, read: 25 mg/kg twice weekly 4 weeks (25 mg/mL [sic]), saline 47.
Where [5] appears, read: 25 mg/kg twice weekly, week 0, saline 280.
The mark [6] stands for this setting: 25 mg/kg twice weekly, week 2, saline 517.
[7] abbreviates: 25 mg/kg twice weekly, week 4, saline 510.
Setting [8] is: 25 mg/kg twice weekly 4 weeks (25 mg/mL [sic]), saline 0.8.
[9] abbreviates: 25 mg/kg twice weekly 4 weeks (25 mg/mL [sic]), saline 56.
Setting [10] is: 25 mg/kg twice weekly 4 weeks (25 mg/mL [sic]), saline 59.
Setting [11] is: 25 mg/kg twice weekly 4 weeks (25 mg/mL [sic]), saline 108.
Where [12] appears, read: 25 mg/kg twice weekly 4 weeks (25 mg/mL [sic]), saline 152.
The mark [13] stands for this setting: 25 mg/kg twice weekly 4 weeks (25 mg/mL [sic]), saline 213.
[14] abbreviates: dose 12.5 mg/mL [sic], twice weekly 4 weeks.
The mark [15] stands for this setting: dose printed 6 mg/mL, twice weekly 4 weeks.

For “CCTTCCCTGAAGGTTCCTCC (chemistry not given here) [ISIS 141923, scrambled control oligonucleotide, negative control, reference compound]”, the “Liver Triglycerides” value in data set [1] (setting [3]) was 30 mg/g. Also, in data set [1] (setting [4]), the “Liver Glycogen” value came out at 43 mg/g. The fed plasma glucose entry was “approximately 287 mg/dL” in the data set on db/db mice (setting [5]), roughly 456 mg/dL in the data set with db/db mice (setting [6]) and roughly 510 mg/dL in the data set with db/db mice (setting [7]). The “Free Fatty Acids” value in data set [2] (setting [8]) is reported as 0.9 mEq/L. The sequence also yielded an ALT in data set [2] (setting [9]) of 72 IU/L. In data set [2] (setting [10]), this sequence showed an AST of 56 IU/L. The sequence also came in with a Lactate in data set [2] (setting [11]) of 128 mg/dL. In addition, in data set [2] (setting [12]), the Cholesterol is reported as 167 mg/dL. In addition, in data set [2] (setting [13]), the “Plasma Triglycerides” value was 166 mg/dL.
As for “CTGCTAGCCTCTGGATTTGA (chemistry not given here) [ISIS 116847, positive control oligonucleotide targeted to mouse PTEN, reference compound]”, the “Liver Triglycerides” value in data set [1] (setting [3]) worked out at 67 mg/g. The “Liver Glycogen” value in data set [1] (setting [4]) was determined as 39 mg/g. Further, the figures for the fed plasma glucose result with db/db mice (setting [5]), with db/db mice (setting [6]) and in the data set on db/db mice (setting [7]) were “approximately 282 mg/dL”, roughly 291 mg/dL and roughly 224 mg/dL, respectively. The “Free Fatty Acids” value in data set [2] (setting [8]) is on record as 0.8 mEq/L. Also, the ALT in data set [2] (setting [9]) amounted to 70 IU/L. The same sequence registered an AST in data set [2] (setting [10]) of 62 IU/L. This sequence also showed a Lactate in data set [2] (setting [11]) of 131 mg/dL. Also, the Cholesterol in data set [2] (setting [12]) was found to be 161 mg/dL. Further, in data set [2] (setting [13]), the “Plasma Triglycerides” value turned out to be 166 mg/dL.
Consider “GCTCCATAGCGAGGACTCGA (chemistry not given here) [ISIS 148985]”, for which the “Liver Glycogen” value in data set [1] (setting [4]) came out at 47 mg/g. The results for the fed plasma glucose result with db/db mice (setting [5]), with db/db mice (setting [6]) and in the data set with db/db mice (setting [7]) were “approximately 289 mg/dL”, roughly 394 mg/dL and roughly 443 mg/dL, respectively. For the same sequence, the “Free Fatty Acids” value in data set [2] (setting [8]) is 1.1 mEq/L. The same sequence registered an ALT in data set [2] (setting [9]) of 73 IU/L. In data set [2] (setting [10]), this sequence showed an AST of 48 IU/L. In addition, the Lactate in data set [2] (setting [11]) is 105 mg/dL. This sequence came in with a Cholesterol in data set [2] (setting [12]) of 164 mg/dL. Moreover, the “Plasma Triglycerides” value in data set [2] (setting [13]) turned out to be 202 mg/dL. The “decrease in AUC of plasma glucose compared to saline, glycerol tolerance test” value in the data set on ob/ob mice was “did not show significant decrease in AUC”.
Consider “TATACAAGTCGGTTTGCCCT (chemistry not given here) [ISIS 149008]”, for which the entries for the “Liver Triglycerides” value in data set [1] (setting [3]), in data set [1] (dose 12.5 mg/mL [sic]) and in data set [1] (dose printed 6 mg/mL) were 58 mg/g, 41 mg/g and 33 mg/g, respectively. For the same sequence, the “Liver Glycogen” value was 45 mg/g in data set [1] (setting [4]), 45 mg/g in data set [1] (dose 12.5 mg/mL [sic]) and 48 mg/g in data set [1] (dose printed 6 mg/mL). Moreover, the fed plasma glucose entry in the data set with db/db mice (6.25 mg/kg twice weekly, week 0) was “approximately 289 mg/dL”; in the data set with db/db mice (6.25 mg/kg twice weekly, week 2), roughly 397 mg/dL; with db/db mice (6.25 mg/kg twice weekly, week 4), roughly 478 mg/dL; in the data set with db/db mice (12.5 mg/kg twice weekly, week 0), “approximately 283 mg/dL”; in the data set with db/db mice (12.5 mg/kg twice weekly, week 2), roughly 411 mg/dL; in the data set with db/db mice (12.5 mg/kg twice weekly, week 4), roughly 203 mg/dL. Also, the fed plasma glucose entry in the data set with db/db mice (setting [5]) is “approximately 286 mg/dL”; in the data set with db/db mice (setting [6]) it was roughly 359 mg/dL; with db/db mice (setting [7]), roughly 299 mg/dL. In addition, the “Free Fatty Acids” value in data set [2] (setting [8]) was 0.9 mEq/L; in data set [2] (setting [14]) it was 1.0 mEq/L; in data set [2] (setting [15]), 0.9 mEq/L. Further, the ALT was found to be 68 IU/L in data set [2] (setting [9]), 64 IU/L in data set [2] (setting [14]) and 59 IU/L in data set [2] (setting [15]). The AST in data set [2] (setting [10]) is reported as 55 IU/L; in data set [2] (setting [14]), 56 IU/L; in data set [2] (setting [15]), 49 IU/L. Also, the Lactate was 129 mg/dL in data set [2] (setting [11]), 127 mg/dL in data set [2] (setting [14]) and 125 mg/dL in data set [2] (setting [15]). Also, the values for the Cholesterol in data set [2] (setting [12]), in data set [2] (setting [14]) and in data set [2] (setting [15]) were 167 mg/dL, 172 mg/dL and 158 mg/dL, respectively. For the same sequence, the “Plasma Triglycerides” value in data set [2] (setting [13]) worked out at 197 mg/dL; in data set [2] (setting [14]), 247 mg/dL; in data set [2] (setting [15]), 205 mg/dL. The “decrease in AUC of plasma glucose compared to saline, glycerol tolerance test” value in the data set with ob/ob mice is recorded as “approximately 30%”.

The record behind these values is patent US8258114B2, “Modulation of glucose-6-phosphatase translocase expression” (Isis Pharmaceuticals, Inc., priority 2004, dated 2012).
